Measured values: patent US20100075899A1, “TARGETED PHOTODYNAMIC THERAPY AGENT” (TRUSTEES OF THE UNIVERSITY OF PENNSYLVANIA, priority 2006, published 2010)

Assays:
KB cells (FR+) = assay: Flow cytometry uptake (Pyro fluorescence), KB cells; format: cell-based, human
Description: (§1) Flow cytometry experiments. KB, HT 1080, and CHO cells were seeded in T25 flasks (each flask 10^6 cells) and grown for 1 day in complete MEM (KB cells and HT 1080 cells) or complete F12K (CHO cells) medium. […] The cells were detached by 0.25% Trypsin-EDTA, fixed by 1% formaldehyde (methanol free) in PBS, resuspended in 1 mL of PBS and immediately analyzed on a BD LSRII machine at the Flow Cytometry Laboratory, Abramson Cancer Center at the University of Pennsylvania focusing on Pyro fluorescence (exc. 633 nm, em. 695 nm).

HT 1080 cells (FR−) = assay: Flow cytometry uptake (Pyro fluorescence), HT 1080 cells; format: cell-based, human
Description: as §1

CHO cells (FR−) = assay: Flow cytometry uptake (Pyro fluorescence), CHO cells; format: cell-based, Chinese hamster
Description: as §1

[1] = format: physicochemical
Description: Pyro-[…] (PP) Pyro-[…]-Folate (PPF) were purified by HPLC (Waters 600 Controller with a 2996 Photodiode Array Detector). The eluents were A=0.1M TEAA (pH 7) and B=acetonitrile and the method used for all injections was 90% of A and 10% of B to 100% of B in 45 minutes with flow 1.5 mL/min on a Zorbax 300SB-C3 column The coupling reagents HBTU (O-(Benzotriazol-1-yl)-N,N,N′,N′-tetramethyluronium hexafluorophosphate) and HOBt (1-Hydroxybenzotriazole) were purchased from Fluka and ACROS respectively. MALDI-ToF was measured on an Applied Biosystems Voyager DE Mass Spectrometer and fluorescence was measured on a Perkin Elmer LS50B Luminescence Spectrometer. We acquired confocal images using a Leica TCS SP2 Confocal Microscope and Xenogen images at the Bioluminescence Molecular Imaging Core facility at UPenn on an IVIS Xenogen Imager. KB cells (human epidermal cancer cells; folate receptor positive), HT 1080 cells (human fibrosarcoma cells; folate receptor negative), and CHO (Chinese hamster ovary cells; folate receptor negative) were purchased from ATCC. […]

## Pyro-K-Folate [PKF]
KB cells (FR+)
  uptake efficiency into KB cells relative to Pyro-GDEVDGSGK-Folate: 50%
HT 1080 cells (FR−)
  uptake efficiency PPF versus PKF in HT 1080 cells: with the same efficiency
CHO cells (FR−)
  uptake efficiency PPF versus PKF in CHO cells: with the same efficiency
[1]
  solubility in water compared with PPF: less soluble in water
[1]; HPLC
  hydrophobicity (HPLC) compared with PPF: more hydrophobic
